From ChEMBL document CHEMBL1144635, “Lead optimization of methionine aminopeptidase-2 (MetAP2) inhibitors containing sulfonamides of 5,6-disubstituted anthranilic acids” (Bioorg Med Chem Lett, 2007)

Tests used:
HT-1080 [1] = test: Antiproliferative activity against HT1080 cells; conditions: Homo sapiens
[2] = Cmax in mouse at 30 mg/kg, po; format: ADME, organism-based; design: dose 30 mg/kg, route oral; conditions: in vivo
[3] = Volume of distribution in mouse at 10 mg/kg, iv; format: ADME, organism-based; design: dose 10 mg/kg, route intravenous; conditions: in vivo, read-out: Vdss
HT-1080 [4] = test: Antiproliferative activity against HT1080 cells in presence of 40 mg/ml HSA; conditions: Homo sapiens
[5] = Oral bioavailability in mouse at 30 mg/kg, po; format: ADME, organism-based; conditions: in vivo
[6] = Clearance in mouse at 10 mg/kg, iv; format: ADME, organism-based; design: dose 10 mg/kg, route intravenous; conditions: in vivo
[7] = Half life in mouse at 10 mg/kg, iv; format: ADME, organism-based; design: dose 10 mg/kg, route intravenous; conditions: in vivo

Compound | EC50 (HT-1080 [1]) [µM] | Cmax [2] [nM] | Vd [3] [L/kg] | EC50 (HT-1080 [4]) [µM] | bioavailability [5] [%] | clearance [6] [mL/min/kg] | half-life [7] [min]
CCc1ccc(NS(=O)(=O)c2ccc(F)cc2)c(C(=O)O)c1C | 4.9 |  |  |  |  |  | 
CCc1ccc(NS(=O)(=O)c2ccc(F)cc2CCCN(CC)CC)c(C(=O)O)c1OCCN | 30 |  |  |  |  |  | 
CCc1ccc(NS(=O)(=O)c2ccc(F)cc2)c(C(=O)O)c1OCCN |  | 2400 | 1.1 |  | 38 | 50 | 18
CCc1ccc(NS(=O)(=O)c2ccccn2)c(C(=O)O)c1C | 12 | 34000 | 5.5 |  | 86 | 26.7 | 144
COc1c(-c2ccoc2)ccc(NS(=O)(=O)c2ccc(F)cc2)c1C(=O)O | 3.8 |  |  |  |  |  | 
CCCc1ccccc1S(=O)(=O)Nc1ccc(CC)c(OCCN)c1C(=O)O | 83 |  |  |  |  |  | 
COc1c(-c2ccoc2)ccc(NS(=O)(=O)c2ccc(F)cc2Br)c1C(=O)O | 11 |  |  |  |  |  | 

Now from value to compound:

EC50 (HT-1080 [1]) [µM] | Cmax [2] [nM] | Vd [3] [L/kg] | EC50 (HT-1080 [4]) [µM] | bioavailability [5] [%] | clearance [6] [mL/min/kg] | half-life [7] [min] | Compound
1.4 |  |  |  |  |  |  | CCc1ccc(NS(=O)(=O)c2ccc(F)cc2)c(C(=O)O)c1OC
0.25 | 5900 | 0.8 | 0.37 | 31 | 35 | 18 | CCc1ccc(NS(=O)(=O)c2ccccc2NCCCCN(C)C)c(C(=O)O)c1OC
0.07 | 100 | 13.8 | 0.15 | 16 | 675 | 12 | CCc1ccc(NS(=O)(=O)c2ccc(F)cc2/C=C\CN(CC)CC)c(C(=O)O)c1OC
0.32 |  |  | 2.9 |  |  |  | COc1c(-c2ccoc2)ccc(NS(=O)(=O)c2ccc(F)cc2NCCCN(C)C)c1C(=O)O
0.06 |  |  | 0.2 |  |  |  | CCN(CC)C/C=C\c1cc(F)ccc1S(=O)(=O)Nc1ccc(-c2ccoc2)c(OC)c1C(=O)O
0.48 | 900 | 2 | 1.9 | 13 | 83.3 | 18 | CCc1ccc(NS(=O)(=O)c2ccccc2NCCC2CCCN2C)c(C(=O)O)c1OC (centres undefined)
0.37 |  |  | 1.2 |  |  |  | CCc1ccc(NS(=O)(=O)c2ccccc2NCCCN2CCCCC2C)c(C(=O)O)c1OC (centres undefined)
